Columns and labels:
[1] = target: T1, COMT (Homo sapiens, UniProt P21964); test: COMT activity in intact SK-N-SH cells (methylation of adrenaline to metanephrine, HPLC with electrochemical detection); assay type: cell-based; details: concentration of test compound 100 nM, means ±SEM of n=4-8
T1 construct: COMT activity was evaluated in cell monolayers by the ability to methylate adrenaline; host or cells: SK-N-SH
T1 sequence (P21964 1-271): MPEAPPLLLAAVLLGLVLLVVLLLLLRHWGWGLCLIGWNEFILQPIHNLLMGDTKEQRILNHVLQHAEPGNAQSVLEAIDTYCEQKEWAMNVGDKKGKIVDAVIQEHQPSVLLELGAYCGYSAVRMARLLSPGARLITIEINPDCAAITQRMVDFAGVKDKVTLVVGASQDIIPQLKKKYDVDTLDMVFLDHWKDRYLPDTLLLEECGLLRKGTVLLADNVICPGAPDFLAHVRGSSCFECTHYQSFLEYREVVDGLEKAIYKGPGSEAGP

[2] = test system: Liver COMT; test: Ex vivo COMT activity in mouse liver homogenates after administration of test compound by gastric tube; set-up: species or system NMRI mice; details: homogenates of mice liver, dose not given, means±S.E.M. of 4-8 experiments; for Liver COMT (% of control) 1h: 1 h after administration by gastric tube; for Liver COMT (% of control) 6h: 6 h after administration by gastric tube
[3] = test system: Brain COMT; test: Ex vivo COMT activity in mouse brain homogenates after administration of test compound by gastric tube; set-up: species or system NMRI mice; details: homogenates of mice brain, dose not given, means±S.E.M. of 4-8 experiments; for Brain COMT (% of control) 1h: 1 h after administration by gastric tube; for Brain COMT (% of control) 6h: 6 h after administration by gastric tube

Row | SMILES | COMT activity (% of control) [1] | Liver COMT (% of control) 1h [2] | Liver COMT (% of control) 6h [2] | Brain COMT (% of control) 1h [3] | Brain COMT (% of control) 6h [3]
1 | Cl.O=C(CCN1CCCCCC1)c1cc(O)c(O)c([N+](=O)[O-])c1 [Compound 20, 3-Azepan-1-yl-1-(3,4-dihydroxy-5-nitro-phenyl)-propan-1-one hydrochloride] | 3.6±0.3 % of control | 39.0±2.0 % of control | 64.0±12.0 % of control | 106.0±9.0 % of control | 125.0±5.0 % of control
2 | Cl.O=C(CN1CCc2ccccc2C1)c1cc(O)c(O)c([N+](=O)[O-])c1 [Compound 21, 2-(3,4-Dihydro-1H-isoquinolin-2-yl)-1-(3,4-dihydroxy-5-nitro-phenyl)-ethanone hydrochloride] | 0.9±0.6 % of control | 55.1±5.0 % of control | 77.5±18.0 % of control | 96.0±8.0 % of control | 104.0±17.0 % of control
3 | Cl.Cl.O=C(CCN1CCN(c2ccccc2Cl)CC1)c1cc(O)c(O)c([N+](=O)[O-])c1 [Compound 22, 3-[4-(2-Chloro-phenyl)-piperazin-1-yl]-1-(3,4-dihydroxy-5-nitro-phenyl)-propan-1-one dihydrochloride] | 0.0±0.0 % of control | 54.2±7.5 % of control | 71.7±0.4 % of control | 94.0±3.0 % of control | 96.0±18.0 % of control
4 | Cl.Cl.Cl.Cl.O=C(CCN1CCN(c2ncccn2)CC1)c1cc(O)c(O)c([N+](=O)[O-])c1 [Compound 23, 1-(3,4-Dihydroxy-5-nitro-phenyl)-3-(4-pyrimidin-2-yl-piperazin-1-yl)-propan-1-one tetrahydrochloride] | 4.4±0.9 % of control | 30.0±2.5 % of control | 56.3±6.0 % of control | 87.0±6.0 % of control | 123.0±12.0 % of control
5 | Cl.O=C(CCN1CCC(Cc2ccccc2)CC1)c1cc(O)c(O)c([N+](=O)[O-])c1 [Compound 24, 3-(4-Benzyl-piperidin-1-yl)-1-(3,4-dihydroxy-5-nitro-phenyl)-propan-1-one hydrochloride] | 0.0±0.0 % of control | 16.5±1.5 % of control | 37.7±3.9 % of control | 33.0±8.0 % of control | 98.0±2.0 % of control
6 | O=C(COc1cccc2ccccc12)c1cc(O)c(O)c([N+](=O)[O-])c1 [Compound 25, 1-(3,4-Dihydroxy-5-nitro-phenyl)-2-(naphthalen-1-yloxy)-ethanone] | 0.0±0.0 % of control | 13.7±1.9 % of control | 31.1±5.5 % of control | 62.8±5.1 % of control | 92.4±10.8 % of control
7 | CC1CCCCN1CCC(=O)c1cc(O)c(O)c([N+](=O)[O-])c1.Cl (centres unmarked) [Compound 26, 1-(3,4-Dihydroxy-5-nitro-phenyl)-3-(2-methyl-piperidin-1-yl)-propan-1-one hydrochloride] | 4.8±0.4 % of control | 18.3±2.9 % of control | 55.2±4.7 % of control | 69.8±3.2 % of control | 89.6±13.4 % of control
